ChEMBL document CHEMBL5661982 (Mol Cancer Ther, 2012)
Calls of active or inactive are those of the source. The calls are words filed in the database; no cut-off is given here.

How the values were obtained:
MDA-MB-231 = assay: Antitumor activity against human MDA-MB-231 cells xenografted in athymic nu/nu mouse assessed as tumor growth inhibition at 40 mg/kg/day, po for 14 days relative to control; details: MDA-MB-231, po, 336 h, read-out: TGI
GTL 16 cell line [1] = assay: Antitumor activity against human GTL 16 cells xenografted in athymic nu/nu mouse assessed as tumor growth inhibition at 0.5 mg/kg, sc minipump administered for 14 days relative to control; details: GTL 16, 336 h, read-out: TGI
GTL 16 cell line [2] = assay: Antitumor activity against human GTL 16 cells xenografted in athymic nu/nu mouse assessed as tumor growth inhibition at 1.5 mg/kg, sc minipump administered for 14 days relative to control; details: GTL 16, 336 h, read-out: TGI
GTL 16 cell line [3] = assay: Antitumor activity against human GTL 16 cells xenografted in athymic nu/nu mouse assessed as tumor growth inhibition at 5 mg/kg, sc minipump administered for 14 days relative to control; details: GTL 16, 336 h, read-out: TGI
GTL 16 cell line [4] = assay: Antitumor activity against human GTL 16 cells xenografted in athymic nu/nu mouse assessed as tumor growth inhibition at 15 mg/kg, sc minipump administered for 14 days relative to control; details: GTL 16, 336 h, read-out: TGI
COLO 205 = assay: Antitumor activity against human COLO 205 cells xenografted in athymic nu/nu mouse assessed as tumor growth inhibition at 40 mg/kg/day, po for 18 days relative to control; details: COLO 205, po, 432 h, read-out: TGI
U-87 MG [5] = assay: Antitumor activity against human U-87 MG cells xenografted in athymic nu/nu mouse assessed as tumor growth inhibition at 0.3 mg/kg, po for 9 days relative to control; details: 216 h, read-out: TGI
U-87 MG [6] = assay: Antitumor activity against human U-87 MG cells xenografted in athymic nu/nu mouse assessed as tumor growth inhibition at 1 mg/kg, po for 9 days relative to control; details: 216 h, read-out: TGI
U-87 MG [7] = assay: Antitumor activity against human U-87 MG cells xenografted in athymic nu/nu mouse assessed as tumor growth inhibition at 3 mg/kg, po for 9 days relative to control; details: 216 h, read-out: TGI
U-87 MG [8] = assay: Antitumor activity against human U-87 MG cells xenografted in athymic nu/nu mouse assessed as tumor growth inhibition at 10 mg/kg, po for 9 days relative to control; details: 216 h, read-out: TGI
U-87 MG [9] = assay: Antitumor activity against human U-87 MG cells xenografted in athymic nu/nu mouse assessed as tumor growth inhibition at 30 mg/kg, po for 9 days relative to control; details: 216 h, read-out: TGI
SW-620 [10] = assay: Antitumor activity against human SW620 cells xenografted in athymic nu/nu mouse assessed as tumor growth inhibition at 40 mg/kg/day, po for 25 days relative to control; details: SW-620, po, 600 h, read-out: TGI
HT-29 [11] = assay: Antitumor activity against human HT-29 cells transfected with RON shRNA xenografted in athymic nu/nu mouse assessed as tumor growth inhibition at 50 mg/kg/day, po for 21 days relative to control; details: HT-29, po, 504 h, read-out: TGI
HT-29 [12] = assay: Antitumor activity against human HT-29 cells xenografted in athymic nu/nu mouse assessed as tumor growth inhibition at 50 mg/kg/day, po for 21 days relative to control; details: HT-29, po, 504 h, read-out: TGI
GTL 16 [13] = details: Homo sapiens, dose 1-30 mg/kg, route po
GTL 16 [14] = details: Homo sapiens, dose 0.3-10 mg/kg, route po, time 4.0 day
GTL 16 [15] = details: Homo sapiens, dose 0.3-10 mg/kg, route po, time 4.0 day; remark: listed apart in the source
GTL 16 [16] = details: Homo sapiens, dose 0.3-10 mg/kg, route po, time 4.0 day; remark: listed apart in the source
GTL 16 [17] = details: Homo sapiens, dose 0.3-10 mg/kg, route po, time 4.0 day; remark: listed apart in the source
GTL 16 [18] = details: Homo sapiens, dose 0.3-10 mg/kg, route po, time 4.0 day; remark: listed apart in the source
GTL 16 [19] = details: Homo sapiens, dose 3-30 mg/kg, route po, time 4.0 day
U-87MG ATCC [20] = details: Homo sapiens, dose 5-50 mg/kg, route po, time 3.0 day
U-87MG ATCC [21] = details: Homo sapiens, dose 5-50 mg/kg, route po, time 3.0 day; remark: listed apart in the source
U-87MG ATCC [22] = details: Homo sapiens, dose 5-50 mg/kg, route po, time 3.0 day; remark: listed apart in the source
U-87MG ATCC [23] = details: Homo sapiens, dose 5-50 mg/kg, route po, time 3.0 day; remark: listed apart in the source
U-87 MG [24] = details: Homo sapiens; U-87MG ATCC; dose 5-50 mg/kg, route po, time 3.0 day
U-87MG ATCC [25] = details: Homo sapiens, dose 5-50 mg/kg, route po, time 3.0 day; remark: listed apart in the source
U-87MG ATCC [26] = details: Homo sapiens, dose 5-50 mg/kg, route po, time 3.0 day; remark: listed apart in the source
U-87MG ATCC [27] = details: Homo sapiens, dose 5-50 mg/kg, route po, time 3.0 day; remark: listed apart in the source
SW-620 [28] = details: Homo sapiens, dose 40.0 mg/kg/day, route po, time 25.0 day
HT-29 [29] = details: Homo sapiens, dose 50.0 mg/kg/day, route po, time 21.0 day
HT-29 [30] = details: Homo sapiens, dose 50.0 mg/kg/day, route po, time 21.0 day; remark: listed apart in the source
HT-29 [31] = details: Homo sapiens, dose 50.0 mg/kg/day, route po, time 21.0 day; remark: listed apart in the source
GTL 16 cell line [32] = assay: animal or person; details: Mus musculus, GTL 16, po, 384 h, read-out: TGI
Description: Antitumor activity against human GTL 16 cells xenografted in athymic nu/nu mouse assessed as tumor growth inhibition at 30 mg/kg, po administered for 16 days relative to control

OCCn1cc(-c2cnc3nnn(Cc4ccc5ncccc5c4)c3n2)cn1 [PF-04217903]
inhibition in vivo at 40 mg/kg/day (MDA-MB-231): 43% | inhibition in vivo at 0.5 mg/kg (GTL 16 cell line [1]): 46% | inhibition in vivo at 1.5 mg/kg (GTL 16 cell line [2]): 63% | inhibition in vivo at 5 mg/kg (GTL 16 cell line [3]): 75% | inhibition in vivo at 15 mg/kg (GTL 16 cell line [4]): 93% | inhibition in vivo at 40 mg/kg/day (COLO 205): 44% | inhibition in vivo at 0.3 mg/kg (U-87 MG [5]): 20% | inhibition in vivo at 1 mg/kg (U-87 MG [6]): 30% | inhibition in vivo at 3 mg/kg (U-87 MG [7]): 48% | inhibition in vivo at 10 mg/kg (U-87 MG [8]): 68% | inhibition in vivo at 30 mg/kg (U-87 MG [9]): 84% | inhibition in vivo at 40 mg/kg/day (SW-620 [10]): 45% | inhibition in vivo at 50 mg/kg/day (HT-29 [11]): 77% | inhibition in vivo at 50 mg/kg/day (HT-29 [12]): 40% | inhibition (GTL 16 [13]): Active | inhibition (GTL 16 [14]): Dose-Dependent Effect | inhibition (GTL 16 [15]): Dose-Dependent Effect | inhibition (GTL 16 [16]): Dose-Dependent Effect | inhibition (GTL 16 [17]): Dose-Dependent Effect | inhibition (GTL 16 [18]): Dose-Dependent Effect | inhibition (GTL 16 [19]): Dose-Dependent Effect | inhibition (U-87MG ATCC [20]): Active | inhibition (U-87MG ATCC [21]): Active | inhibition (U-87MG ATCC [22]): Active | inhibition (U-87MG ATCC [23]): Active | inhibition (U-87 MG [24]): Active | inhibition (U-87MG ATCC [25]): Active | inhibition (U-87MG ATCC [26]): inactive | inhibition (U-87MG ATCC [27]): inactive | inhibition (SW-620 [28]): Active | inhibition (HT-29 [29]): Active | inhibition (HT-29 [30]): inactive | inhibition (HT-29 [31]): Active | inhibition in vivo at 30 mg/kg (GTL 16 cell line [32]): 100%
